The source made the active and inactive calls. The calls are words filed in the database; no cut-off is given here.
How the values were obtained:
[1] = organism: Rattus norvegicus; test: The effective concentration (EC25) was measured for anti-ischemic activity on perfused rat hearts; assay type: functional
[2] = organism: Rattus norvegicus; test: The inhibitory concentration (IC50) for vasorelaxation on rat aorta; assay type: functional
[3] = EC25 and IC50 Ratio of the compound; assay type: functional; design: reference not given here
[4] = organism: Rattus norvegicus; test: In vitro inhibitory concentration for 50% vasorelaxant effect was measured on rat aorta strips; assay type: functional
[5] = Inhibition of Kir6.1/SUR1 potassium channel K-ATP; design: species or system Homo sapiens
[6] = organism: Rattus norvegicus; test: The effective dose for relaxation was measured on rat aorta rings; assay type: functional; details: read-out: ED50 (the source's name)
[7] = organism: Rattus norvegicus; test: The percentage of residual insulin release at 50 uM of compound in the presence of glucose on rat pancreatic beta cells; assay type: functional
[8] = target: T1, Potassium voltage-gated channel subfamily A member 5 (Homo sapiens, UniProt P22460); test: (§1) Inhibition of voltage-gated potassium channel subunit Kv1.5; assay type: functional
[9] = organism: Cavia porcellus; test: Relaxation of guinea pig bladder strips when contracted with 20 mM KCl; assay type: functional
[10] = Inhibition of currents and prolonged action potential duration in human atrial myocytes; assay type: functional, Cardiac atrium
[11] = target: T1, Potassium voltage-gated channel subfamily A member 5; test: as §1
[12] = target: T2, Sulfonylurea receptor 2, Kir6.2 (Homo sapiens, UniProt O60706+Q14654); test: (§2) Inhibition of SUR2B/Kir6.2; assay type: protein-complex assay
[13] = organism: Rattus norvegicus; test: The effective concentration was measured on rat aorta strips; assay type: functional
[14] = organism: Rattus norvegicus; test: The inhibitory concentration for 50% was measured on rat aorta strips; assay type: functional
[15] = target: T2, Sulfonylurea receptor 2, Kir6.2; test: as §2; assay type: protein-complex assay, Rattus norvegicus
[16] = target: T2, Sulfonylurea receptor 2, Kir6.2; test: Inhibition of human SUR2A/Kir6.2 expressed in Xenopus oocytes; assay type: cell-based, Oocyte
[17] = organism: Cavia porcellus; test: The inhibitory concentration was measured on guinea pig cardiomyocytes; assay type: functional
[18] = organism: Rattus norvegicus; test: The inhibitory concentration was measured on the rat insulinoma cell line RIN-m5F; assay type: functional
[19] = organism: Cavia porcellus; test: The inhibitory concentration for 50% was measured on guinea pig bladder strips; assay type: functional
[20] = organism: Rattus norvegicus; test: Antagonistic activity in the rat thoracic aorta; assay type: functional
[21] = organism: Cavia porcellus; test: The inhibitory concentration of compound on guinea pig portal vein; assay type: functional
[22] = organism: Cavia porcellus; test: The inhibitory concentration of compound on guinea pig bladder strips; assay type: functional
[23] = organism: Rattus norvegicus; test: Antagonistic activity (pKb) was measured in the rat thoracic aorta; assay type: functional
[24] = organism: Cavia porcellus; test: The inhibitory concentration for 50% was measured on guinea pig cardiomyocytes; assay type: functional
[25] = target: Sulfonylurea receptor 1, Kir6.2 (Homo sapiens, UniProt Q09428+Q14654); test: Inhibition of human SUR1/Kir6.2 expressed in CHO cells; assay type: cell-based
[26] = The inhibitory concentration for 50% was measured on the rat insulinoma cell line RIN-m5F; assay type: functional
[27] = Inhibition of glyburide binding to K-ATP potassium channel; Inactive
[28] = Inhibition of glyburide binding to K-ATP potassium channel
[29] = target: T3, Small conductance calcium-activated potassium channel protein 1 (Homo sapiens, UniProt Q92952); test: Inhibition of hSK1 calcium activated potassium channel (SKCa channel)
[30] = organism: Cavia porcellus; test: The effective dose to inhibit 20% was measured on guinea pig; assay type: functional
[31] = organism: Cavia porcellus; test: The effective dose to inhibit 50% was measured on guinea pig; assay type: functional
[32] = target: T3, Small conductance calcium-activated potassium channel protein 1; test: Inhibition of hSK1 calcium activated potassium channel (SKCa channel); Range is 1-2
[33] = target: T1, Potassium voltage-gated channel subfamily A member 5; test: The inhibitory concentration for 50% was measured on cation flux
[34] = target: Voltage-gated potassium channel, IKs; KCNQ1(Kv7.1)/KCNE1(MinK) (Homo sapiens, UniProt P15382+P51787); test: Inhibition of Iks current KvLQT1 potassium channel; assay type: protein-complex assay
[35] = target: Gardos channel, KCNN4/IK1 (Homo sapiens); test: Selectivity for gardos channel; (Gardos channel vs 2000 nM for the cardiac IKs channel).)
[36] = In vitro reduction of glutamate release in hippocampal slices; assay type: functional, tissue-based; details: Rattus norvegicus, Hippocampus

T2 sequence (Q14654 whole entry): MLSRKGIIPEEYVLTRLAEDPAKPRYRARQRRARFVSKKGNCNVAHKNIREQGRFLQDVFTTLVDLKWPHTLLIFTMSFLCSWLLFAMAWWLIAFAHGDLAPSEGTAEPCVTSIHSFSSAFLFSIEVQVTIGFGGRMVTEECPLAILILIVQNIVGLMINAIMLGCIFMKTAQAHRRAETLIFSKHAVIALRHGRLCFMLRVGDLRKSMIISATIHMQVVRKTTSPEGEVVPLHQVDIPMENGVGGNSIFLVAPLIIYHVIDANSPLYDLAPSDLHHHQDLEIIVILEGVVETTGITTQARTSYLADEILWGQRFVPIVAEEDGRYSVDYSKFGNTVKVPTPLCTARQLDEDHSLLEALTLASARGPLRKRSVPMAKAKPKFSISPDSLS
T2 sequence (O60706 whole entry): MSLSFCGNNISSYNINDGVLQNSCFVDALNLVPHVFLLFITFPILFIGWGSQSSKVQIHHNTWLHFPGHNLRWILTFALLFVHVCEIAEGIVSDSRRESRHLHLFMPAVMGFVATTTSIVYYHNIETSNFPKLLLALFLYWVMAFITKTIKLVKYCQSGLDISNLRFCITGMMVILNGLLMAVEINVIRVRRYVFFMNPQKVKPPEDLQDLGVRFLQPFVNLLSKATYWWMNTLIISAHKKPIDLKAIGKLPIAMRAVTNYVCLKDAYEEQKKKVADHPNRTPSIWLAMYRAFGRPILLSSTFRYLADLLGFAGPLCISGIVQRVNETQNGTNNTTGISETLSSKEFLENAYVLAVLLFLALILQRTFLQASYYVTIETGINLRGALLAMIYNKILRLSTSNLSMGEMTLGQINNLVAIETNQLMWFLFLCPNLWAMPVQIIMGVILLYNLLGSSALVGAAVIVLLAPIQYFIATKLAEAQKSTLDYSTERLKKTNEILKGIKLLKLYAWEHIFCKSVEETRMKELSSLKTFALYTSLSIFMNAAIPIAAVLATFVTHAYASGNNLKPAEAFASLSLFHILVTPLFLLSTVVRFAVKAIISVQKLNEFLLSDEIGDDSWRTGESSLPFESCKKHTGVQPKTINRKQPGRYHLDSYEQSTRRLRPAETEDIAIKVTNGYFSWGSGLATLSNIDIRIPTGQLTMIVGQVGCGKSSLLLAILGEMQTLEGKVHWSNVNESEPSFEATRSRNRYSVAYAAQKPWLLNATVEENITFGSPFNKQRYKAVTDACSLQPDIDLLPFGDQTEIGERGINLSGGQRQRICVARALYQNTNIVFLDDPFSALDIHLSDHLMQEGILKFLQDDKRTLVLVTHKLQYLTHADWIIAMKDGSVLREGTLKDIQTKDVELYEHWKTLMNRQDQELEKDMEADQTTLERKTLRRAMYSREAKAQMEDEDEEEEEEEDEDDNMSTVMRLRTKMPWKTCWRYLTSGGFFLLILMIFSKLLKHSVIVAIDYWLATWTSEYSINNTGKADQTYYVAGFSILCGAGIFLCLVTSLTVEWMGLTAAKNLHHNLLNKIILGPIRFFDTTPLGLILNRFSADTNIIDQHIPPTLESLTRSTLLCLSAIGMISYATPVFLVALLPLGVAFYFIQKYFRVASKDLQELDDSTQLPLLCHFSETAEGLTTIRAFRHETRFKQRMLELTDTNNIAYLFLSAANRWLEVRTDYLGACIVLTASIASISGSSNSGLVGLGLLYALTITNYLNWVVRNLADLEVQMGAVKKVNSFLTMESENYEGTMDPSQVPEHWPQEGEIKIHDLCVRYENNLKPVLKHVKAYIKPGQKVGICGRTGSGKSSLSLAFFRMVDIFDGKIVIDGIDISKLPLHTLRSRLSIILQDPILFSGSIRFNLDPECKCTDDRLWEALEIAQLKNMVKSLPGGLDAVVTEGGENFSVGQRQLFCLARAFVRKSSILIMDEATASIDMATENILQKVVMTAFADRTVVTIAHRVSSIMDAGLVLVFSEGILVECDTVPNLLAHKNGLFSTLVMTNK
T1 sequence (P22460 whole entry): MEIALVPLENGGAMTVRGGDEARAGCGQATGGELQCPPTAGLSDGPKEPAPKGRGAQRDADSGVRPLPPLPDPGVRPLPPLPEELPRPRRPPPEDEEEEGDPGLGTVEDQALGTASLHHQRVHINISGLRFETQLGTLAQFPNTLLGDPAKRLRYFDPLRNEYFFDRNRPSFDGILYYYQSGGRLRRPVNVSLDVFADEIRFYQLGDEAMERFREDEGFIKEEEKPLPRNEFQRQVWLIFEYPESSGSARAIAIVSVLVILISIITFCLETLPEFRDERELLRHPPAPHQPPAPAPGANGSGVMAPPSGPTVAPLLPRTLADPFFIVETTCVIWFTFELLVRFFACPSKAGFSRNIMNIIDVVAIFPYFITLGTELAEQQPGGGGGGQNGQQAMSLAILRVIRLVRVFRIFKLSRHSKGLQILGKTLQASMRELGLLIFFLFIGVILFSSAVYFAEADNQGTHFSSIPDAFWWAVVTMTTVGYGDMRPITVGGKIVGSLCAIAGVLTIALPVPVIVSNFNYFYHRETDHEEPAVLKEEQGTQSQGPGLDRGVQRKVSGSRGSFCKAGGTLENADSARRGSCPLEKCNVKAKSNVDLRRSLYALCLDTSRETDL
T3 sequence (Q92952 whole entry): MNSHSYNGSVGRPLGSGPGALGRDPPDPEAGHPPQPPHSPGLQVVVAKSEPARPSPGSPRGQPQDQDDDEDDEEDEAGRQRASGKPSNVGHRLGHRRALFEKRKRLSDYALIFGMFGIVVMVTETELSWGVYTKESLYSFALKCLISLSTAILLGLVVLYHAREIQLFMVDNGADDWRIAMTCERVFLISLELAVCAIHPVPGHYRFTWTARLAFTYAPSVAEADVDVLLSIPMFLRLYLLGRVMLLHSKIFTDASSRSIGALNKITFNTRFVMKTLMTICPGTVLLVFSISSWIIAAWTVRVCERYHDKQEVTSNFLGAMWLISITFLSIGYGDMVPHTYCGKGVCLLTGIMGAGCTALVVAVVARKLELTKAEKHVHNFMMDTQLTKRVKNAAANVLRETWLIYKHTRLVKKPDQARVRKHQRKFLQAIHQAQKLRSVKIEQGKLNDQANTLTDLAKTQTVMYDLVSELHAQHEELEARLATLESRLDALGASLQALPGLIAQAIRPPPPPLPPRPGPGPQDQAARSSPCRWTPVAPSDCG
Sequence of Voltage-gated potassium channel, IKs; KCNQ1(Kv7.1)/KCNE1(MinK) (P51787 whole entry): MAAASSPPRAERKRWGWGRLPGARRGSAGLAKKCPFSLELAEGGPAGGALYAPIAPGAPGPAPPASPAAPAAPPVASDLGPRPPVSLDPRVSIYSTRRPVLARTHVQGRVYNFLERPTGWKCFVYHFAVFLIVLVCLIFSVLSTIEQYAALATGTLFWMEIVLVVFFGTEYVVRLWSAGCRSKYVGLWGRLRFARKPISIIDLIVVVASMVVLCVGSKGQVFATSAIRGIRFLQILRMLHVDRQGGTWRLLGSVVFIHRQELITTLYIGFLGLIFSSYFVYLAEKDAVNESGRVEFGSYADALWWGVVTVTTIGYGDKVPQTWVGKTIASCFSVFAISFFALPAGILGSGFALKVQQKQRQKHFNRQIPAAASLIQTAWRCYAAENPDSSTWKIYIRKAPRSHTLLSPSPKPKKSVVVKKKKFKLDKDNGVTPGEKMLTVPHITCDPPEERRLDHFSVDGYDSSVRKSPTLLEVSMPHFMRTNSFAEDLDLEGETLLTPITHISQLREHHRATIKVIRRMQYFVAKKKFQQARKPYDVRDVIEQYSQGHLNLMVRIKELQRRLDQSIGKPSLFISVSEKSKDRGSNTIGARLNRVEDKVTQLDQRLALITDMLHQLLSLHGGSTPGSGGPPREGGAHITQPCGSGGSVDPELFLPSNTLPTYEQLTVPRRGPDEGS

In the case of CC1(C)Oc2ccc(C#N)cc2[C@H](N2CCCC2=O)[C@H]1O [(-)-CROMAKALIM], the EC25 [1] is reported as 8900 nM, the IC50 [2] is reported as 32 nM and the Ratio [3] is reported as 278.

CC(C)(C)O/N=C(\c1cc(Br)c(F)cc1O)c1c(O)ccc[n+]1[O-] gave an IC50 [4] of 280 nM.

In the case of C1CCC(/N=C(\NC23CC4CC(CC(C4)C2)C3)N2CCOCC2)CC1, the IC50 [5] is reported as 32000 nM.

Work on CC(NC1=NS(=O)(=O)c2cc(Cl)cnc2N1)C(C)(C)C (stereo not drawn) yielded an EC50 [6] of 2300 nM and an Insulin release [7] of 41.5%.

For O=C1NCCN1CCN1CCC(c2cn(-c3ccc(F)cc3)c3ccc(Cl)cc23)CC1 [SERTINDOLE], the IC50 [8] was 2000 nM.

Cc1c(-c2ccccc2F)[nH]c(N)c1C#N showed an IC50 [9] of 540 nM.

With CCc1ccc(S(=O)(=O)N[C@@H]2c3cc(NC(=O)c4cccc(OC)c4)ccc3C[C@H]2O)cc1 the Inhibition [10] was over 50% and the IC50 [11] was 100 nM.

Compound CNC(=S)C1(C(=O)c2ccc(-n3ccnc3)cc2)CCC1 has a Kd [12] of 8500 nM, an EC50 [13] of 5300 nM and an IC50 [14] of 12000 nM. The Kd [15] was 5200 nM.

With CC(NC1=NS(=O)(=O)c2cccnc2N1)C(C)(C)C (stereo not drawn) the EC50 [6] was 7500 nM and the Insulin release [7] was 98.9%.

COc1ccc(Cl)cc1C(=O)NCCc1ccc(S(=O)(=O)NC(=O)NC2CCCCC2)cc1 [GLYBURIDE] showed an IC50 [16] of 220 nM, an IC50 [17] of 8 nM and an IC50 [18] of 1.6 nM.

CC(O)(C(=O)Nc1cccc2c1C(=O)c1sccc1CO2)C(F)(F)F (stereo not drawn) gave an IC50 [19] of 2100 nM.

For C=CCN(C1=NCCN1)c1c(Cl)cccc1Cl [ALINIDINE], the pKb [20] was 5.5.

In the case of N#Cc1cccc(C2C3=C(CCCC3=O)NC3=C2C(=O)CCC3)c1, the IC50 [21] is reported as 750 nM and the IC50 [22] is reported as 4200 nM.

Fc1ccc(CN(C2=NCCN2)c2c(Cl)cccc2Cl)cc1 gave a pKb [23] of 7.1.

CC1(C)Oc2ccc(C#N)cc2[C@H](N(Cc2ncc[nH]2)c2ccc(Cl)cc2)[C@H]1O [BMS-191095] showed an EC25 [1] of 1400 nM, an IC50 [2] of over 30000 nM and a Ratio [3] of under 0.05.

With CNC(=S)NS(=O)(=O)c1cc(CCNC(=O)c2cc(Cl)ccc2OC)ccc1OC [CLAMIKALANT] the IC50 [16] was 4300 nM, the IC50 [24] was 800 nM and the IC50 [25] was 8200 nM. It also gave an IC50 [26] of 7500 nM.

In the case of C[C@@H](N/C(=N/C#N)Nc1cccnc1)c1ccccc1, the NA [27] is reported as “inactive”.

CC(NC1=NS(=O)(=O)c2cnccc2N1)C(C)(C)C (stereo not drawn) gave an EC50 [6] of 154000 nM and an Insulin release [7] of 7.1%.

In the case of N#C/N=C(\Nc1cccnc1)NC1(c2cccc(Cl)c2)CCC1, the IC50 [28] is reported as 18 nM.

C[C@](O)(C(=O)Nc1cccc2c1C(=O)c1sccc1CS2(=O)=O)C(F)(F)F showed an IC50 [19] of 2500 nM.

With c1cc2cc(c1)C[n+]1ccc(c3ccccc31)NCc1ccc(cc1)CNc1cc[n+](c3ccccc13)C2 the IC50 [29] was 3 nM.

Cc1cc(-c2ccc3c(c2)[C@@H](NC(=O)c2cccnc2)[C@H](O)C(C)(C)O3)ccn1 showed an ED20 [30] of 100 µg/kg and an ED50 [31] of 0.08 µg/kg.

c1ccc2c(c1)c1cc[n+]2CCCCC[n+]2ccc(c3ccccc32)NCCCCCN1 gave an IC50 [32] of 1 nM.

CC1=Nc2ccc(Cl)cc2S(=O)(=O)N1 [DIAZOXIDE] gave an EC50 [6] of 19300 nM and an Insulin release [7] of 28.8%.

With CCCCc1ccc(S(=O)(=O)N[C@@H]2c3cc(NC(=O)c4cccc(OC)c4)ccc3CC[C@H]2O)cc1 the IC50 [33] was about 2900 nM and the IC50 [11] was about 50 nM.

With CC1(C)Oc2ccc(C#N)cc2[C@@H](/N=C(\NC#N)Nc2ccc(Cl)cc2)[C@@H]1O the EC25 [1] was 2500 nM and the Ratio [3] was 1.4.

Compound CC(C)CN(CC(C)C)S(=O)(=O)c1ccc2c(c1)[C@@H](/N=C(\NC#N)Nc1ccc(Cl)cc1)[C@H](O)C(C)(C)O2 has an EC25 [1] of 40 nM and a Ratio [3] of under 0.004.

NC(=O)C(c1ccccc1)(c1ccc(F)cc1)c1ccccc1F (stereo not drawn) gave an IC50 [34] of 2000 nM and an IC50 [35] of 9 nM.

With CC[C@@H](N/C(=N/C#N)Nc1cccnc1)c1ccccc1 the NA [27] was “inactive”.

Compound COc1ccc(Cl)cc1[C@]1(F)C(=O)Nc2cc(C(F)(F)F)ccc21 [FLINDOKALNER] has an IC50 [36] of 352 nM.
